In US7745619B2, “Vinca derivatives” (priority 2003, dated 2010):
Read-outs that look alike come from different tables or passages of the source.

Legend:
[1] = test system: HeLa S-3 cells; assay: HeLa GI50 determination (SRB growth inhibition); format: cell-based, human
Description: Growth inhibition (GI50) values were measured on the human cervical carcinoma cell line, HeLa S-3, which were selected for growth on plastic. The HeLa cell assay was based on the description of Skehan et al., J. Natl. Cancer Inst., 82:1107-12 (1990), which is hereby incorporated by reference in its entirety. HeLa cells were plated at 2×10^4 cells/well in 96 well plates. One day later, a control plate was fixed by the addition of TCA to 5%. After five rinses with tap water, the plate was air-dried and stored at 4° C. Test compounds were added to the remaining plates at 10-fold dilutions. Two days later, all plates were fixed as described above. Cells were then stained by the addition of 100 μL per well of 0.4% sulforhodamine B (SRB) in 1% acetic acid for 30 min at 4° C. Wells were then quickly rinsed 5× with 1% acetic acid and allowed to air dry. The SRB was then solubilized by the addition of 100 μL per well of unbuffered 10 mM Tris base. Dye was quantified by measuring absorbance at 490 nm on a Molecular Devices microplate reader. Growth inhibition was calculated according to the following equation: GI=100×(T−T0)/(C−T0), where the optical density (OD) of the test well after 2 days of treatment was T, the OD of the wells in the control plate on day 0 was T0 and C was the OD of untreated wells. Plots of percent growth inhibition versus inhibitor concentration were used to determine the GI50.

[2] = test system: MCF-7 cells; assay: MCF-7 GI50 determination (crystal violet growth inhibition); format: cell-based, human
Description: Growth inhibition (GI50) values were measured on the human breast carcinoma line, MCF-7. MCF-7 cells were plated at 2×10^4 cells/well in 96 well plates and grown for 24 hours in drug free media. On day 2, test compounds were added to the plates at 10-fold dilutions. Four days later, cells were fixed by the addition of glutaraldehyde to 0.75%. After 30 min, the fixed cells were extensively rinsed with distilled water and dried at room temperature for one hour. The cells were then stained with a 0.2% crystal violet solution for one hour at room temperature. Unbound stain was removed by ten rinses with tap water and plates were allowed to air dry for 30 min. The crystal violet was then solubilized by the addition of 10% acetic acid for 15 min and quantified by measuring absorbance at 570 nm on a Molecular Devices microplate reader. Growth inhibition was calculated according to the following equation: GI=[…], where the optical density (OD) of the test well after 4 days of treatment was T, the OD of the wells in the control plate on day 0 was T0. Plots of percent growth inhibition versus inhibitor concentration were used to determine the GI50.

[3] = Homo sapiens, HeLa S3, 48 h, read-out: HeLa Cells GI50 (nM)
[4] = Homo sapiens, MCF7, 96 h, read-out: MCF-7 Cells GI50 (nM)
[5] = Homo sapiens, HeLa S3, 48 h, HeLa S-3 cells, 2 days of treatment, sulforhodamine B, read-out: HeLa Cells GI50
[6] = Homo sapiens, MCF7, 96 h, MCF-7 cells, 4 days of treatment, crystal violet, read-out: MCF-7 Cells GI50

Molecule | GI50 [1, 3] | GI50 [2, 4] | GI50 [1, 5] | GI50 [2, 6] | further results
CC[C@]1(O)C[C@H]2CN(CCc3c([nH]c4ccc(N5CCCC5)cc34)[C@@](C(=O)OC)(c3cc4c(cc3OC)N(C)[C@H]3[C@@](O)(C(=O)OC)[C@H](OC(C)=O)[C@]5(CC)C=CCN6CC[C@]43[C@@H]65)C2)C1 [Example 87, 12′-(pyrrolidin-1-yl) vinblastine] | 50 nM | 60 nM | – | – | –
CC[C@]1(O)C[C@H]2CN(CCc3c([nH]c4ccc(N(C)C)cc34)[C@@](C(=O)OC)(c3cc4c(cc3OC)N(C)[C@H]3[C@@](O)(C(=O)OC)[C@H](OC(C)=O)[C@]5(CC)C=CCN6CC[C@]43[C@@H]65)C2)C1 [Example 81, 12′-(N,N-dimethylamino)vinblastine] | – | – | 30 nM | 50 nM | –
CC[C@]1(O)C[C@H]2CN(CCc3c([nH]c4ccc(SC)cc34)[C@@](C(=O)OC)(c3cc4c(cc3OC)N(C=O)[C@H]3[C@@](O)(C(=O)OC)[C@H](OC(C)=O)[C@]5(CC)C=CCN6CC[C@]43[C@@H]65)C2)C1 [Example 42, 12′-(methylsulfanyl) vincristine] | – | – | 3 nM | 3 nM | –
CC[C@]1(O)C[C@H]2CN(CCc3c([nH]c4ccc(C(=O)CC(C)C)cc34)[C@@](C(=O)OC)(c3cc4c(cc3OC)N(C=O)[C@H]3[C@@](O)(C(=O)OC)[C@H](OC(C)=O)[C@]5(CC)C=CCN6CC[C@]43[C@@H]65)C2)C1 [Example 71, 12′-(3-methylbutanoyl) vincristine] | 200 nM | 100 nM | – | – | –
CC[C@]1(O)C[C@H]2CN(CCc3c([nH]c4ccc(SCCO)cc34)[C@@](C(=O)OC)(c3cc4c(cc3OC)N(C)[C@H]3[C@@](O)(C(=O)OC)[C@H](OC(C)=O)[C@]5(CC)C=CCN6CC[C@]43[C@@H]65)C2)C1 [Example 35, 12′-(2-hydroxyethylsulfanyl)vinblastine] | – | – | 200 nM | 60 nM | –
CC[C@]1(O)C[C@H]2CN(CCc3c([nH]c4ccc(C(=O)OCC(Cl)(Cl)Cl)cc34)[C@@](C(=O)OC)(c3cc4c(cc3OC)N(C)[C@H]3[C@@](O)(C(=O)OC)[C@H](OC(C)=O)[C@]5(CC)C=CCN6CC[C@]43[C@@H]65)C2)C1 [Example 68, 12′-(2,2,2-trichloroethylcarbonyl)vinblastine] | 30 nM | 200 nM | – | – | –
CCCCC#Cc1ccc2[nH]c3c(c2c1)CCN1C[C@H](C[C@@](O)(CC)C1)C[C@]3(C(=O)OC)c1cc2c(cc1OC)N(C=O)[C@H]1[C@@](O)(C(=O)OC)[C@H](OC(C)=O)[C@]3(CC)C=CCN4CC[C@]21[C@@H]43 [Example 22, 12′-hexynylvincristine] | 300 nM | 300 nM | – | – | –
CC[C@]1(O)C[C@H]2CN(CCc3c([nH]c4ccc(/C=C/C(=O)OC(C)(C)C)cc34)[C@@](C(=O)OC)(c3cc4c(cc3OC)N(C)[C@H]3[C@@](O)(C(=O)OC)[C@H](OC(C)=O)[C@]5(CC)C=CCN6CC[C@]43[C@@H]65)C2)C1 [Example 27, 12′-(2-tert-butoxycarbonylvinyl) vinblastine] | 200 nM | 300 nM | – | – | –
CC[C@]1(O)C[C@H]2CN(CCc3c([nH]c4cc(I)c(I)cc34)[C@@](C(=O)OC)(c3cc4c(cc3OC)N(C=O)[C@H]3[C@@](O)(C(=O)OC)[C@H](OC(C)=O)[C@]5(CC)C=CCN6CC[C@]43[C@@H]65)C2)C1 [Example 90, 12′,13′-diiodovincristine] | 30 nM | 30 nM | – | – | –
CC[C@]1(O)C[C@H]2CN(CCc3c([nH]c4cc(I)c(I)cc34)[C@@](C(=O)OC)(c3cc4c(cc3OC)N(C)[C@H]3[C@@](O)(C(=O)OC)[C@H](OC(C)=O)[C@]5(CC)C=CCN6CC[C@]43[C@@H]65)C2)C1 [Example 91, 12′,13′-diiodovinblastine] | – | – | 60 nM | 200 nM | –
CCC1=C[C@H]2CN(CCc3c([nH]c4ccc(I)cc34)[C@@](C(=O)OC)(c3cc4c(cc3OC)N(C)[C@H]3[C@@](O)(C(=O)OC)[C@H](OC(C)=O)[C@]5(CC)C=CCN6CC[C@]43[C@@H]65)C2)C1 [Example 98, 12′-iodoanhydro vinblastine] | 50 nM | 305 nM | – | – | –
CCc1ccc2[nH]c3c(c2c1)CCN1C[C@H](C[C@@](O)(CC)C1)C[C@]3(C(=O)OC)c1cc2c(cc1OC)N(C=O)[C@H]1[C@@](O)(C(=O)OC)[C@H](OC(C)=O)[C@]3(CC)C=CCN4CC[C@]21[C@@H]43 [Example 78, 12′-ethylvincristine] | – | – | 5 nM | 10 nM | –
CC[C@]1(O)C[C@H]2CN(CCc3c([nH]c4ccc(SCCCN5CCCCC5)cc34)[C@@](C(=O)OC)(c3cc4c(cc3OC)N(C)[C@H]3[C@@](O)(C(=O)OC)[C@H](OC(C)=O)[C@]5(CC)C=CCN6CC[C@]43[C@@H]65)C2)C1 [Example 50, 12′-(3-(piperidin-1-yl)propylsulfanyl) vinblastine] | – | – | 20 nM | 40 nM | –
CC[C@]1(O)C[C@H]2CN(CCc3c([nH]c4ccc(Nc5ccc(OC)cc5)cc34)[C@@](C(=O)OC)(c3cc4c(cc3OC)N(C)[C@H]3[C@@](O)(C(=O)OC)[C@H](OC(C)=O)[C@]5(CC)C=CCN6CC[C@]43[C@@H]65)C2)C1 [Example 83, 12′-(4-methoxyphenylamino)vinblastine] | 300 nM | 500 nM | – | – | –
CCCSc1ccc2[nH]c3c(c2c1)CCN1C[C@H](C[C@@](O)(CC)C1)C[C@]3(C(=O)OC)c1cc2c(cc1OC)N(C)[C@H]1[C@@](O)(C(=O)OC)[C@H](OC(C)=O)[C@]3(CC)C=CCN4CC[C@]21[C@@H]43 [Example 39, 12′-(propylsulfanyl) vinblastine] | – | – | 25 nM | 25 nM | –
CC[C@]1(O)C[C@H]2CN(CCc3c([nH]c4ccc(Sc5ccccc5Cl)cc34)[C@@](C(=O)OC)(c3cc4c(cc3OC)N(C=O)[C@H]3[C@@](O)(C(=O)OC)[C@H](OC(C)=O)[C@]5(CC)C=CCN6CC[C@]43[C@@H]65)C2)C1 [Example 56, 12′-(2-chlorophenylsulfanyl)vincristine] | 30 nM | 30 nM | – | – | –
CC[C@]1(O)C[C@H]2CN(CCc3c([nH]c4ccc(/C=C/C(=O)O)cc34)[C@@](C(=O)OC)(c3cc4c(cc3OC)N(C)[C@H]3[C@@](O)(C(=O)OC)[C@H](OC(C)=O)[C@]5(CC)C=CCN6CC[C@]43[C@@H]65)C2)C1 [Example 28, 12′-(2-carboxylvinyl) vinblastine] | 100 nM | 300 nM | – | – | –
CC[C@]1(O)C[C@H]2CN(CCc3c([nH]c4ccc(/C=C/CNC(=O)OC(C)(C)C)cc34)[C@@](C(=O)OC)(c3cc4c(cc3OC)N(C)[C@H]3[C@@](O)(C(=O)OC)[C@H](OC(C)=O)[C@]5(CC)C=CCN6CC[C@]43[C@@H]65)C2)C1 [Example 31, 12′-(3-tert-butoxycarbonylaminopropenyl) vinblastine] | 600 nM | 300 nM | – | – | –
CC[C@]1(O)C[C@H]2CN(CCc3c([nH]c4ccc(-c5cccc(O)c5)cc34)[C@@](C(=O)OC)(c3cc4c(cc3OC)N(C)[C@H]3[C@@](O)(C(=O)OC)[C@H](OC(C)=O)[C@]5(CC)C=CCN6CC[C@]43[C@@H]65)C2)C1 [Example 12, 12′-(3-hydroxyphenyl) vinblastine] | 200 nM | 300 nM | – | – | –
CC[C@]1(O)C[C@H]2CN(CCc3c([nH]c4ccc(C#N)cc34)[C@@](C(=O)OC)(c3cc4c(cc3OC)N(C=O)[C@H]3[C@@](O)(C(=O)OC)[C@H](OC(C)=O)[C@]5(CC)C=CCN6CC[C@]43[C@@H]65)C2)C1 [Example 66, 12′-cyanovincristine] | – | – | 10 nM | 4 nM | –
di(12′-vinblastine) disulfide [Example 60] | – | – | – | – | GI50 ([1]; HeLa S-3 cells, 2 days of treatment, sulforhodamine B, read-out: HeLa Cells GI50): 10 nM; GI50 ([2]; MCF-7 cells, 4 days of treatment, crystal violet, read-out: MCF-7 Cells GI50): 20 nM
CC[C@]1(O)C[C@H]2CN(CCc3c([nH]c4ccc(/C=C/C#N)cc34)[C@@](C(=O)OC)(c3cc4c(cc3OC)N(C)[C@H]3[C@@](O)(C(=O)OC)[C@H](OC(C)=O)[C@]5(CC)C=CCN6CC[C@]43[C@@H]65)C2)C1 [Example 30, 12′-(2-cyanovinyl) vinblastine] | 65 nM | 45 nM | – | – | –
CC[C@]1(O)C[C@H]2CN(CCc3c([nH]c4ccc(C)cc34)[C@@](C(=O)OC)(c3cc4c(cc3OC)N(C=O)[C@H]3[C@@](O)(C(=O)OC)[C@H](OC(C)=O)[C@]5(CC)C=CCN6CC[C@]43[C@@H]65)C2)C1 [Example 76, 12′-methylvincristine] | – | – | 1 nM | 3 nM | –
